Results published in patent US11225482B2, “Dihydropyrrolopyrimidines for the treatment and prophylaxis of hepatitis B virus infection” (Hoffmann-La Roche Inc., priority 2017, dated 2022).

Test system: HBsAg
Experiment: HBsAg assay (CLIA) in HepG2.2.15 cells
Assay type: cell-based, HBV
Details: Hepatitis B virus, HepG2.2.15, read-out: IC50 (HBsAg assay)
Experimental: HepG2.2.15 cells (Acs et al. Proc Natl Acad Sci USA, 84, (1987), 4641-4), a constitutively HBV-expressing cell line were cultured in DMEM+Glutamax-I medium (Invitrogen, Carlsbad, Calif., USA), supplemented with 10% fetal bovine serum (Invitrogen) and G418 (Invitrogen) at a final concentration of 200 mg/L and maintained in 5% CO2 at 37° C.
HepG2.2.15 cells were seeded in duplicate into white, 96-well plates at 1.5×10^4 cells/well. The cells were treated with a three-fold serial dilution series of the compounds in DMSO. The final DMSO concentration in all wells was 1% and DMSO was used as no drug control.
The HBsAg chemiluminescence immunoassay (CLIA) kit (Autobio Diagnostics Co., Zhengzhou, China, Catalog number: CL0310-2) was used to measure the levels of secreted HBV antigens semi-quantitatively. For the detection 50 μL/well culture supernatant was used and HBsAg was quantified using HBsAg chemiluminescence immunoassay (CLIA) kit (Autobio Diagnostics Co., Zhengzhou, China, Catalog number: CL0310-2), 50 μL of the supernatant was transferred to the CLIA assay plate and 50 μL of enzyme conjugate reagent was added into each well. The plates were sealed and gently agitated for 1 hour at room temperature. The supernatant-enzyme-mixture was discarded and wells were washed 6 times with 300 μL of PBS. The residual liquid was removed by plating the CLIA plate […] on absorbent tissue paper. 25 μL of substrates A and B were added to each well. Luminance was measured using a luminometer (Mithras LB 940 Multimode Microplate Reader) after 10 minutes incubation. Dose-response curves were generated and the IC50 value was extrapolated by using the E-WorkBook Suite (ID Business Solutions Ltd., Guildford, UK). The IC50 was defined as the compound concentration (or conditioned media log dilution) at which HBsAg secretion was reduced by 50% compared to the no drug control.

Cc1cnc(C(=O)N2Cc3nc(-c4ncccn4)ncc3C2C)s1 (stereo not shown) [Example 1, (5-Methyl-2-pyrimidin-2-yl-5,7-dihydropyrrolo[3,4-d]pyrimidin-6-yl)-(5-methylthiazol-2-yl)methanone] was tested, and the IC50 was 700 nM.
COc1ccc(C(=O)N2Cc3nc(-c4ncccn4)ncc3C2C)s1 (stereo not shown) [Example 2, (5-Methoxy-2-thienyl)-(5-methyl-2-pyrimidin-2-yl-5,7-dihydropyrrolo[3,4-d]pyrimidin-6-yl)methanone] showed an IC50 of 330 nM.
CC1c2cnc(-c3ncccn3)nc2CN1C(=O)c1cc(C(F)(F)F)cs1 (stereo not shown) [Example 3, (5-Methyl-2-pyrimidin-2-yl-5,7-dihydropyrrolo[3,4-d]pyrimidin-6-yl)-[4-(trifluoromethyl)-2-thienyl]methanone] showed an IC50 of 546 nM.
In the case of COc1cc(F)cc(C(=O)N2Cc3nc(-c4ncccn4)ncc3C2C)c1 (stereo not shown) [Example 4, (3-Fluoro-5-methoxy-phenyl)-(5-methyl-2-pyrimidin-2-yl-5,7-dihydropyrrolo[3,4-d]pyrimidin-6-yl)methanone], the IC50 is reported as 14100 nM.
Work on CC1c2cnc(-c3ncccn3)nc2CN1C(=O)c1cccs1 (stereo not shown) [Example 5, (5-Methyl-2-pyrimidin-2-yl-5,7-dihydropyrrolo[3,4-d]pyrimidin-6-yl)-(2-thienyl)methanone] yielded an IC50 of 1700 nM.
With Cc1csc(C(=O)N2Cc3nc(-c4ncccn4)ncc3C2C)c1 (stereo not shown) [Example 6, (5-Methyl-2-pyrimidin-2-yl-5,7-dihydropyrrolo[3,4-d]pyrimidin-6-yl)-(4-methyl-2-thienyl)methanone] the IC50 was 1110 nM.
CC1c2cnc(-c3ncccn3)nc2CN1C(=O)c1cc(Br)cs1 (stereo not shown) [Example 7, (4-Bromo-2-thienyl)-(5-methyl-2-pyrimidin-2-yl-5,7-dihydropyrrolo[3,4-d]pyrimidin-6-yl)methanone] was tested, and the IC50 was 920 nM.
With Cc1ccc(C(=O)N2Cc3nc(-c4ncccn4)ncc3C2C)s1 (stereo not shown) [Example 8, (5-Methyl-2-pyrimidin-2-yl-5,7-dihydropyrrolo[3,4-d]pyrimidin-6-yl)-(5-methyl-2-thienyl)methanone] the IC50 was 681 nM.
For CC1c2cnc(-c3ncccn3)nc2CN1C(=O)c1ccc(Cl)s1 (stereo not shown) [Example 9, (5-Chloro-2-thienyl)-(5-methyl-2-pyrimidin-2-yl-5,7-dihydropyrrolo[3,4-d]pyrimidin-6-yl)methanone], the IC50 was 380 nM.
CC1c2cnc(-c3ncccn3)nc2CN1C(=O)c1cnn(C)c1 (stereo not shown) [Example 11, (1-Methylpyrazol-4-yl)-(5-methyl-2-pyrimidin-2-yl-5,7-dihydropyrrolo[3,4-d]pyrimidin-6-yl)methanone] showed an IC50 of 6170 nM.
With CC1c2cnc(-c3ncccn3)nc2CN1C(=O)c1ccn(C)n1 (stereo not shown) [Example 13, (1-Methylpyrazol-3-yl)-(5-methyl-2-pyrimidin-2-yl-5,7-dihydropyrrolo[3,4-d]pyrimidin-6-yl)methanone] the IC50 was 3540 nM.
CC1c2cnc(-c3ncccn3)nc2CN1C(=O)c1nc2ccccc2[nH]1 (stereo not shown) [Example 14, 1H-Benzimidazol-2-yl-(5-methyl-2-pyrimidin-2-yl-5,7-dihydropyrrolo[3,4-d]pyrimidin-6-yl)methanone] was tested, and the IC50 was 422 nM.
COc1ccc(C(=O)N2Cc3nc(-c4ncccn4)ncc3C2C)cc1 (stereo not shown) [Example 15, (4-Methoxyphenyl)-(5-methyl-2-pyrimidin-2-yl-5,7-dihydropyrrolo[3,4-d]pyrimidin-6-yl)methanone] showed an IC50 of 26100 nM.
Work on CCn1ccc(C(=O)N2Cc3nc(-c4ncccn4)ncc3C2C)n1 (stereo not shown) [Example 16, (1-Ethylpyrazol-3-yl)-(5-methyl-2-pyrimidin-2-yl-5,7-dihydropyrrolo[3,4-d]pyrimidin-6-yl)methanone] yielded an IC50 of 4690 nM.
CC1c2cnc(-c3ncccn3)nc2CN1C(=O)c1ccc(Br)s1 (stereo not shown) [Example 17, (5-Bromo-2-thienyl)-(5-methyl-2-pyrimidin-2-yl-5,7-dihydropyrrolo[3,4-d]pyrimidin-6-yl)methanone] was tested, and the IC50 was 761 nM.
Work on CC1c2cnc(-c3ncccn3)nc2CN1C(=O)c1ccc([N+](=O)[O-])s1 (stereo not shown) [Example 18, (5-Methyl-2-pyrimidin-2-yl-5,7-dihydropyrrolo[3,4-d]pyrimidin-6-yl)-(5-nitro-2-thienyl)methanone] yielded an IC50 of 724 nM.
CC1c2cnc(-c3ncccn3)nc2CN1C(=O)c1ccc2ccccc2c1 (stereo not shown) [Example 19, (5-Methyl-2-pyrimidin-2-yl-5,7-dihydropyrrolo[3,4-d]pyrimidin-6-yl)-(2-naphthyl)methanone] gave an IC50 of 7860 nM.
Compound CC1c2cnc(-c3ncccn3)nc2CN1C(=O)c1cn2ccccc2n1 (stereo not shown) [Example 20, Imidazo[1,2-a]pyridin-2-yl-(5-methyl-2-pyrimidin-2-yl-5,7-dihydropyrrolo[3,4-d]pyrimidin-6-yl)methanone] has an IC50 of 502 nM.
For COc1cncc(C(=O)N2Cc3nc(-c4ncccn4)ncc3C2C)n1 (stereo not shown) [Example 22, (6-Methoxypyrazin-2-yl)-(5-methyl-2-pyrimidin-2-yl-5,7-dihydropyrrolo[3,4-d]pyrimidin-6-yl)methanone], the IC50 was 4730 nM.
CC1c2cnc(-c3ncccn3)nc2CN1C(=O)c1n[nH]c2ccccc12 (stereo not shown) [Example 23, 1H-indazol-3-yl-(5-methyl-2-pyrimidin-2-yl-5,7-dihydropyrrolo[3,4-d]pyrimidin-6-yl)methanone] showed an IC50 of 232 nM.
CC1c2cnc(-c3ncccn3)nc2CN1C(=O)c1cnn2ccccc12 (stereo not shown) [Example 24, (5-Methyl-2-pyrimidin-2-yl-5,7-dihydropyrrolo[3,4-d]pyrimidin-6-yl)-pyrazolo[1,5-a]pyridin-3-yl-methanone] showed an IC50 of 156 nM.
CC1c2cnc(-c3ncccn3)nc2CN1C(=O)c1ccc2ncsc2c1 (stereo not shown) [Example 25, 1,3-Benzothiazol-6-yl-(5-methyl-2-pyrimidin-2-yl-5,7-dihydropyrrolo[3,4-d]pyrimidin-6-yl)methanone] gave an IC50 of 29000 nM.
For CC1c2cnc(-c3ncccn3)nc2CN1C(=O)c1cnc2ccccn12 (stereo not shown) [Example 26, Imidazo[1,2-a]pyridin-3-yl-(5-methyl-2-pyrimidin-2-yl-5,7-dihydropyrrolo[3,4-d]pyrimidin-6-yl)methanone], the IC50 was 220 nM.
Compound CC1c2cnc(-c3ncccn3)nc2CN1C(=O)c1noc2ccccc12 (stereo not shown) [Example 27, 1,2-Benzoxazol-3-yl-(5-methyl-2-pyrimidin-2-yl-5,7-dihydropyrrolo[3,4-d]pyrimidin-6-yl)methanone] has an IC50 of 620 nM.
With CC1c2cnc(-c3ncccn3)nc2CN1C(=O)c1nc2ccccc2s1 (stereo not shown) [Example 28, 1,3-Benzothiazol-2-yl-(5-methyl-2-pyrimidin-2-yl-5,7-dihydropyrrolo[3,4-d]pyrimidin-6-yl)methanone] the IC50 was 1790 nM.
Compound CC1c2cnc(-c3ncccn3)nc2CN1c1cc(F)cc(F)n1 (stereo not shown) [Example 31, 6-(4,6-difluoro-2-pyridyl)-5-methyl-2-pyrimidin-2-yl-5,7-dihydropyrrolo[3,4-d]pyrimidine] has an IC50 of 659 nM.
For CC1c2cnc(-c3ncccn3)nc2CN1c1cc(F)nc(F)c1 (stereo not shown) [Example 32, 6-(2,6-difluoro-4-pyridyl)-5-methyl-2-pyrimidin-2-yl-5,7-dihydropyrrolo[3,4-d]pyrimidine], the IC50 was 2000 nM.
Compound COc1cc(F)nc(N2Cc3nc(-c4ccccn4)ncc3C2C)c1 (stereo not shown) [Example 33, 6-(6-Fluoro-4-methoxy-2-pyridyl)-5-methyl-2-(2-pyridyl)-5,7-dihydropyrrolo[3,4-d]pyrimidine] has an IC50 of 127 nM.
CC(=O)N1CCN(c2cc(F)cc(N3Cc4nc(-c5ncccn5)ncc4C3C)n2)CC1 (stereo not shown) [Example 34, 1-[4-[4-Fluoro-6-(5-Methyl-2-Pyrimidin-2-Yl-5,7-Dihydropyrrolo[3,4-d]Pyrimidin-6-Yl)-2-Pyridyl]Piperazin-1-Yl]Ethanone] was tested, and the IC50 was 361 nM.
In the case of CC1c2cnc(-c3ncccn3)nc2CN1c1cc(F)nc(N2CC3(COC3)C2)c1 (stereo not shown) [Example 35, 6-[6-Fluoro-4-(5-Methyl-2-Pyrimidin-2-Yl-5,7-Dihydropyrrolo[3,4-d]Pyrimidin-6-Yl)-2-Pyridyl]-2-Oxa-6-Azaspiro[3.3]Heptane], the IC50 is reported as 588 nM.
For CC1c2cnc(-c3ncccn3)nc2CN1c1cc(F)cc(N2CC3(COC3)C2)n1 (stereo not shown) [Example 36, 6-[4-Fluoro-6-(5-Methyl-2-Pyrimidin-2-Yl-5,7-Dihydropyrrolo[3,4-d]Pyrimidin-6-Yl)-2-Pyridyl]-2-Oxa-6-Azaspiro[3.3]Heptane], the IC50 was 865 nM.
Work on CNc1cc(F)nc(N2Cc3nc(-c4ncccn4)ncc3C2C)c1 (stereo not shown) [Example 37, 2-Fluoro-N-methyl-6-(5-methyl-2-pyrimidin-2-yl-5,7-dihydropyrrolo[3,4-d]pyrimidin-6-yl)pyridin-4-amine] yielded an IC50 of 55 nM.
For CC1c2cnc(-c3ncccn3)nc2CN1c1cc(N(C)C)cc(F)n1 (stereo not shown) [Example 38, 2-Fluoro-N,N-dimethyl-6-(5-methyl-2-pyrimidin-2-yl-5,7-dihydropyrrolo[3,4-d]pyrimidin-6-yl)pyridin-4-amine], the IC50 was 15 nM.
CC1c2cnc(-c3ncccn3)nc2CN1c1cc(N2CCC2)cc(F)n1 (stereo not shown) [Example 39, 6-[4-(Azetidin-1-yl)-6-fluoro-2-pyridyl]-5-methyl-2-pyrimidin-2-yl-5,7-dihydropyrrolo[3,4-d]pyrimidine] gave an IC50 of 20 nM.
